Reference: patent publication US20040266699A1, “Flavonoid compounds capable of modifying the dynamic and/or physical state of biological membranes and to stimulate the endogenous synthesis of stress proteins in eukaryotic cells, relative synthesis and their use” (priority 2001, published 2004)

Experiments:
[1] = Membrane fluidity (DPH fluorescence anisotropy) in artificial membranes (LUVs); conditions: LUVs of di-oleil-fosfatidyl-ethanolamine, di-oleil-fosfatidyl-choline, cardiolipin and fosfatidylserine; 1 DPH per 500 lipid molecules
Text: Test to evaluate changes of MPS in artificial membranes (LUVs, Large Unilamellar Vesicles), made of di-oleil-fosfatidyl-ethanolamine, di-oleil-fosfatidyl-choline, cardiolipin and fosfatidylserine, that mimic biological membrane lipid composition. Fluidity has been measured with DPH (1,6-difenyl-1,3,5-esatriene) measuring fluorescence.
In these membranes, every 500 lipid molecules is inserted. 1 molecule of DPH This substance emits fluorescent light when it is excited with polarized light. The more a membrane is rigid the less is the capacity of the molecules to rotate freely in the membrane. Using a fluorimeter that detects the emitted fluorescence by DPH, either vertically in respect to the polarizing light or horizontally, the anisotropy of the membrane is determined and correlated to its fluidity. The more the membrane is fluid, the more DPH rotates freely and emits light in a direction different from that with which it receives the excitation. To a higher value of anisotropy corresponds a higher rigidity of the membrane, while a lower anisotropy (low fluorescence) corresponds a higher fluidity.

human hsp70 promoter = test: Luciferase reporter assay under control of human hsp70 promoter in L929 cells exposed to heat shock; type: cell-based, murine; conditions: 10 μM, heat shock at 40° C. and 41° C., Bimoclomol as internal positive control
Protocol: For example, L929 cells, incubated at 37° C., are stressed by heat shock at 40° or 41° C. with exposures variable from 20 min to an hour or more. After heat shock, a molecular assay that involves mRNA purification, its separation on agarose or acrylamide gels followed by hybridization with a labeled probe ([…] performed. Alternatively, the activity of luciferase used as reported gene under the control of a heat shock promoter can be used (FIG. 1). In this case, after heat shock cells are lysed in the presence of an appropriate substrate for luciferase, the activity is measured with a luminometer. […] The test utilized to assay the over expression of heat shock genes is based on a rapid enzymatic assay to determine luminescence of eukaryotic cells transfected with luciferase gene. The luciferase gene has been cloned in an eukaryotic plasmid under the control of human hsp70 gene and transfected in murine fibroblasts (L929 cell line). In such cells, a heat shock induces hsp70 promoter that activates transcription of the downstream gene (reporter gene, e.g. luciferase) whose activity is measured determining luciferase in the presence of luciferine with a luminometer. […] After lysis, luciferase activity has been determined measuring the quantity of light emitted with a luminometer. […]

Row | SMILES | change of membrane physical state (fluidity) measured with DPH fluorescence [1] | heat shock response (hsp70 promoter-driven luciferase activity / inducibility of hsp70 mRNA transcription by heat shock) (human hsp70 promoter)
1 | Oc1ccc2c(c1)O[C@H](c1ccc(O)c(O)c1)[C@@H](O[C@@H]1OC[C@@H](O)[C@H](O)[C@H]1O)C2 [#11, fisetinidol-3-O-β-D-xylopyranoside] | increases fluidity | induce a heat shock response
2 | Oc1ccc(C=Cc2cc(O)cc(O)c2)cc1 [#100, Resveratrol, reference compound] |  | inhibits the inducibility of hsp70 mRNA transcription by heat shock
